Assay results as given in patent US12516056B2, “Compounds for inhibition of janus kinase 1” (MANKIND PHARMA LTD., priority 2019, dated 2026).
Structures can show the parent of a compound that is named as a salt. Where two headings read alike, the source gives them in different places.

Columns and labels:
[1] = target: T1, Recombinant JAK3 (Homo sapiens, UniProt P52333); test: JAK biochemical assay (LANCE Ultra TR-FRET), JAK3; details: recombinant JAK3, TR-FRET; read-out: Biochemical Assay (μM) JAK3
T1 construct: purchased Carna Biosciences
T1 sequence (P52333 1-1124): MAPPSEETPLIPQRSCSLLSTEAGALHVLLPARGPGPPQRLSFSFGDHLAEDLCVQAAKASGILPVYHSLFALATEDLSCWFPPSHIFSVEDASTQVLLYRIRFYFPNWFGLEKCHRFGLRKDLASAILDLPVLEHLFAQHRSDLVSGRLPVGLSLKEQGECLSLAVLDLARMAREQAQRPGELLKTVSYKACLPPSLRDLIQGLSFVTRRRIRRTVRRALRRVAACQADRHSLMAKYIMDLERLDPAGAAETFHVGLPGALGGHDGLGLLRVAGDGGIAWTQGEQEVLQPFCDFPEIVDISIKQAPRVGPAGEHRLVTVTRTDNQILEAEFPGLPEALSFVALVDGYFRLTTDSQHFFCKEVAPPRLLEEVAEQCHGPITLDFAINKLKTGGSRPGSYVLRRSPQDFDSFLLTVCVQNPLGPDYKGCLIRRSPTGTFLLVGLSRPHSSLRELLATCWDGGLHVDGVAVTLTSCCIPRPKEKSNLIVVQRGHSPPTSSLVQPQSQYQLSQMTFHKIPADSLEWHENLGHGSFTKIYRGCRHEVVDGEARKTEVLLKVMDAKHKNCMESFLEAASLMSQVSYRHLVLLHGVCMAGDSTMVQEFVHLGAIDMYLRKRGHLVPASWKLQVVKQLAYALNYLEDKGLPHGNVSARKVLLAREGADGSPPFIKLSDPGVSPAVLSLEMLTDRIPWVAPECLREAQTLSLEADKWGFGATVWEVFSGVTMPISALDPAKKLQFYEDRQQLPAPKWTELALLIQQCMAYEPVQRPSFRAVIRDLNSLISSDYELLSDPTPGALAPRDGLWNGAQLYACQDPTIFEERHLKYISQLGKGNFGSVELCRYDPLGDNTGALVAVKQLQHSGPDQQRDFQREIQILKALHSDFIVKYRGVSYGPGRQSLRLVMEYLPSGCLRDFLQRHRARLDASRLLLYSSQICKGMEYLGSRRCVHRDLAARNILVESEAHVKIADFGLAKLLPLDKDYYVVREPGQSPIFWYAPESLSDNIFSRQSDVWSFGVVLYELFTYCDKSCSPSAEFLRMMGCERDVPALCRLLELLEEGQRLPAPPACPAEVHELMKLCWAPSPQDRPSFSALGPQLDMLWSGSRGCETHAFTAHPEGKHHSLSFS
In short: (§1)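 % inhibition relative to vehicle was derived from TR-FRET signal proportional to ULight-substrate phosphorylation. Reactions used recombinant kinase in HEPES pH 7.5 buffer containing EGTA, MgCl2, DTT and Tween-20.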

[2] = test system: STAT3 phosphorylation by IL-6 in TF-1 cells; test: JAK cellular assay: STAT3 phosphorylation by IL-6 in TF-1 cells (HTRF); type: cell-based; details: IL-6 30 ng/ml, pSTAT3 HTRF, read-out: Cell Based Assay (μM) TF-1/IL-6/pSTAT3
Method: (§2) TF-1 cells were starved overnight in OptiMEM medium with 0.5% charcoal stripped fetal bovine serum, 0.1 mM nonessential amino acids (NEAA), 1 mM sodium pyruvate and without phenol red in CO2 incubator maintained at 37° c. Next day, cells were resuspended in RPMI without phenol red and dispensed into a 96 well plate at a final cell density of 1,20,000 cells per well. Compounds were diluted in DMSO and added to cells and incubated for 30 minutes in CO2 incubator maintained at 37° c. Final DMSO concentration in cell based assay was 0.2%. Human recombinant cytokines, IL-6 (30 ng/ml) and GMCSF (5 ng/ml) were added to the plate containing cells along with compound and incubated for 20 minutes with gentle tapping at every 5 minutes once. Compound mediated effects on STAT3 and STAT5 phosphorylation was measured in the lysates prepared by using CISBIO pSTAT3 and pSTAT5 detection kits by HTRF method. Background signal obtained from cells which were not activated with cytokines, was subtracted from vehicle controls and compound treated wells.

[3] = test system: STAT5 phosphorylation by GMCSF in TF-1 cells; test: JAK cellular assay: STAT5 phosphorylation by GMCSF in TF-1 cells (HTRF); type: cell-based; details: TF-1 cells, GMCSF 5 ng/ml, pSTAT5 HTRF, read-out: Cell Based Assay (μM) TF-1/GMCSF/pSTAT5
Method: as §2

[4] = target: T2, Recombinant JAK2 (Homo sapiens, UniProt O60674); test: JAK biochemical assay (LANCE Ultra TR-FRET), JAK2; details: recombinant JAK2, TR-FRET; read-out: Biochemical Assay (μM) JAK2
T2 construct: purchased Carna Biosciences
T2 sequence (O60674 whole entry): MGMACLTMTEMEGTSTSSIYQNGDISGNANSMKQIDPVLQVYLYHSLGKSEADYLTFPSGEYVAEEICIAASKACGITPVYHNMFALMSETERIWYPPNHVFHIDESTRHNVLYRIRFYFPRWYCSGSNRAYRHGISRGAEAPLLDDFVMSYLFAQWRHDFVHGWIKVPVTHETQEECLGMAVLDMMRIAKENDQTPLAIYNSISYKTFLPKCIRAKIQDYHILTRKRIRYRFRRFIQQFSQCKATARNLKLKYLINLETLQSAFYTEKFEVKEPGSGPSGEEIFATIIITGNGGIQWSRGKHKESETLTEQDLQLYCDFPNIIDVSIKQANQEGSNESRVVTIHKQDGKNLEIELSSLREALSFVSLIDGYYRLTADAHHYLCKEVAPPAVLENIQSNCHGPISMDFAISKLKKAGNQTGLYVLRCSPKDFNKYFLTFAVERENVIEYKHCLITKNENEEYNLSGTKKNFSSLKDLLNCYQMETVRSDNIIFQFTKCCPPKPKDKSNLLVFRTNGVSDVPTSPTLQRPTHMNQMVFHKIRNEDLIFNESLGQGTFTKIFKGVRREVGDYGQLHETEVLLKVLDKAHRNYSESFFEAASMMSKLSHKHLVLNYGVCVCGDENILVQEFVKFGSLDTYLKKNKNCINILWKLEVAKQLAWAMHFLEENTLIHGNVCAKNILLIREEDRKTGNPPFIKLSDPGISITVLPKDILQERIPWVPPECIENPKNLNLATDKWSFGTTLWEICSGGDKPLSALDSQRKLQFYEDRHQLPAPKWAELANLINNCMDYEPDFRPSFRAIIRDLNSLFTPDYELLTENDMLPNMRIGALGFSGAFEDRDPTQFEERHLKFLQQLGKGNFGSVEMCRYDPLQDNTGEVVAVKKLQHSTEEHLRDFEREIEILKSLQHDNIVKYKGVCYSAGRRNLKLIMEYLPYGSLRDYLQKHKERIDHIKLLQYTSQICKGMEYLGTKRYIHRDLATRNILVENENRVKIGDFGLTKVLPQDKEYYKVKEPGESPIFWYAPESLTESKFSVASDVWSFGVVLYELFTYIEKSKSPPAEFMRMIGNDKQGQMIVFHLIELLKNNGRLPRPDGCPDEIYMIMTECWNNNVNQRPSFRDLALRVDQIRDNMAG
In short: as §1

[5] = target: T3, Recombinant JAK1 (Homo sapiens, UniProt P23458); test: JAK biochemical assay (LANCE Ultra TR-FRET), JAK1; details: recombinant JAK1, TR-FRET; read-out: Biochemical Assay (μM) JAK1
T3 construct: purchased Carna Biosciences
T3 sequence (P23458 whole entry): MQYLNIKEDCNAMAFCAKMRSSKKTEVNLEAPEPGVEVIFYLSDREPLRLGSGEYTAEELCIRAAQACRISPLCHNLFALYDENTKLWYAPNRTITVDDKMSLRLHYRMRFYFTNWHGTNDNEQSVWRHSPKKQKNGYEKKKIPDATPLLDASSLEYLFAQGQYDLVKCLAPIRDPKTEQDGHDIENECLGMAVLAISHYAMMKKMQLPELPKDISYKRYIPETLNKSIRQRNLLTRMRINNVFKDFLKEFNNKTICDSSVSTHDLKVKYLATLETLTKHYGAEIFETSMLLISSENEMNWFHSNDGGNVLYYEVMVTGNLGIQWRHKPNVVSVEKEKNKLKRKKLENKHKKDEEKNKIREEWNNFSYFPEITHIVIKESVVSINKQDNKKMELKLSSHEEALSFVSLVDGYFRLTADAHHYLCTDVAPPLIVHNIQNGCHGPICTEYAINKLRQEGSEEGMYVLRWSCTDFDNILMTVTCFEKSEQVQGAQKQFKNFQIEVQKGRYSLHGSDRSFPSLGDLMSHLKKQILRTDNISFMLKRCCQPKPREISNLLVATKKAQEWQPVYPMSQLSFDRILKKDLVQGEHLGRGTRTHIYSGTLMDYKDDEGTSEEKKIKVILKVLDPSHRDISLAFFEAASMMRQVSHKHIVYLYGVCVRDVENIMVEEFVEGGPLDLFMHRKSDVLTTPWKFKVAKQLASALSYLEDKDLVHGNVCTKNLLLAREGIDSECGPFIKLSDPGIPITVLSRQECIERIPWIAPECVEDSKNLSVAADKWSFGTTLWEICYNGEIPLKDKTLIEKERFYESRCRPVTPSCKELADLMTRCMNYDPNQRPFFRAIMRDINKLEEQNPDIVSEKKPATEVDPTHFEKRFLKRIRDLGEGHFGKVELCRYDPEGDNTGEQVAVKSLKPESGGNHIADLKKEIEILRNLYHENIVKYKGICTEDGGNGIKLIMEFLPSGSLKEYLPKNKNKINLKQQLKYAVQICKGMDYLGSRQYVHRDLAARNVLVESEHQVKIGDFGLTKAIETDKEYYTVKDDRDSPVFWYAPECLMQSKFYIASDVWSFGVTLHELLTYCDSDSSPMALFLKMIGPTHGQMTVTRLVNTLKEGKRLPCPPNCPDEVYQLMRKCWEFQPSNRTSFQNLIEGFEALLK
In short: as §1

[6] = target: T4, Recombinant TYK2 (Homo sapiens, UniProt P29597); test: JAK biochemical assay (LANCE Ultra TR-FRET), TYK2; details: recombinant TYK2, TR-FRET; read-out: Biochemical Assay (μM) TYK2
T4 construct: purchased Carna Biosciences
T4 sequence (P29597 whole entry): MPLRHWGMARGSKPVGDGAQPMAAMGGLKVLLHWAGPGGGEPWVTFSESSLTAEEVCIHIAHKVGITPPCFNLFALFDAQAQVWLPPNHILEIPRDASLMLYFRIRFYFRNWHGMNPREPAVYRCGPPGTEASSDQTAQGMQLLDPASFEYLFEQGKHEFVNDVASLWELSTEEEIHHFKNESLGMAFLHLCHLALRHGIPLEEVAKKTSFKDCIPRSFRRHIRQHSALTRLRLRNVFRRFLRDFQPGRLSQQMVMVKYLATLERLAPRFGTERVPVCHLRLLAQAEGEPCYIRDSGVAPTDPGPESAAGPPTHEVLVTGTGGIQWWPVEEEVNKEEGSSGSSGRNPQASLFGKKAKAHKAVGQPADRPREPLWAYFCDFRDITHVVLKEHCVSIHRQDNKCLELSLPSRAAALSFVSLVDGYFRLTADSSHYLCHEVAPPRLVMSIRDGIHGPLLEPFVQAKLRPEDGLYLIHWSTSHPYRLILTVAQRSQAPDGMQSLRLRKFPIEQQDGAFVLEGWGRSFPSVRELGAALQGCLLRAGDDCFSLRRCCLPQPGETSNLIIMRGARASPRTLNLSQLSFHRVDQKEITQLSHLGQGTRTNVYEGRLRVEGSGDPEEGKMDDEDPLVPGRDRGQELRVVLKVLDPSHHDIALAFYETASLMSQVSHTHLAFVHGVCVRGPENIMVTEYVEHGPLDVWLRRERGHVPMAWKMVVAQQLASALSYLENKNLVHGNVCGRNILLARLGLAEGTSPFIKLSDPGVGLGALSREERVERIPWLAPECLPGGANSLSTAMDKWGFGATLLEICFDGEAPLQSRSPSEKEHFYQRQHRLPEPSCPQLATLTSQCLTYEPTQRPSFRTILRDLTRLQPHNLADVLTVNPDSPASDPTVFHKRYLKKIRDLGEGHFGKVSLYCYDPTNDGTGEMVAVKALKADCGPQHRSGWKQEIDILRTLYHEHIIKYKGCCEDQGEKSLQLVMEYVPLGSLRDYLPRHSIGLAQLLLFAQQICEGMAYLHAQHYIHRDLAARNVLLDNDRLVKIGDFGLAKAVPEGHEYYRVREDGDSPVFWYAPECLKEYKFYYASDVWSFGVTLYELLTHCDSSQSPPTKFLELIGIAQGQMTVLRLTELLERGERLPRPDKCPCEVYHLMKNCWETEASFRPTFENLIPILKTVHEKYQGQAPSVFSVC
In short: as §1

IC50 [1] [µM] | IC50 ([2]; Homo sapiens, TF-1, TF-1 cells) [µM] | IC50 ([3]; Homo sapiens) [µM] | IC50 [4] [µM] | IC50 [5] [µM] | IC50 [6] [µM] | IC50 ([2]; TF-1 cells) [µM] | IC50 [3] [µM] | Compound
< 0.1 | > 1 | > 10 |  | < 0.1 | > 1 |  |  | OC(c1ccc(-n2cc(-c3ccnc4[nH]cnc34)cn2)nc1)(C1CCOCC1)C(F)(F)F (stereo not drawn) [Example 1134, 1-(6-(4-(3H-imidazo[4,5-b]pyridin-7-yl)-1H-pyrazol-1-yl)pyridin-3-yl)-2,2,2-trifluoro-1-(tetrahydro-2H-pyran-4-yl)ethanol]
> 0.1 | 1 |  | > 0.5 | > 0.5 | > 1 |  |  | O=S(=O)(CCC(c1ccc(-n2cc(-c3ccnc4[nH]cnc34)cn2)nc1)C(F)(F)F)C1CC1 (stereo not drawn) [Example 1139, 7-(1-(5-(4-(cyclopropylsulfonyl)-1,1,1-trifluorobutan-2-yl)pyridin-2-yl)-1H-pyrazol-4-yl)-3H-imidazo[4,5-b]pyridine]
> 0.1 | > 1 | > 10 |  |  | > 1 |  |  | CN(C)C(=O)CC(c1ccc(-n2cc(-c3ccnc4[nH]cnc34)cn2)nc1)C(F)(F)F (stereo not drawn) [Example 1144, 3-(6-(4-(3H-imidazo[4,5-b]pyridin-7-yl)-1H-pyrazol-1-yl)pyridin-3-yl)-4,4,4-trifluoro-N,N-dimethylbutanamide]
 | > 0.8 | > 1 |  |  |  |  |  | CN1CCN(CC(c2ccc(-n3cc(-c4ccnc5[nH]cnc45)cn3)nc2)C(F)(F)F)CC1 (stereo not drawn) [Example 1222, 7-(1-(5-(1,1,1-trifluoro-3-(4-methylpiperazin-1-yl)propan-2-yl)pyridin-2-yl)-1H-pyrazol-4-yl)-3H-imidazo[4,5-b]pyridine]
0.001 | > 0.75 | > 1 |  |  | > 0.1 |  |  | CC(N)CCC(c1ccc(-n2cc(-c3ccnc4[nH]cnc34)cn2)nc1)C(F)(F)F (stereo not drawn) [Example 1224, 5-(6-(4-(3H-imidazo[4,5-b]pyridin-7-yl)-1H-pyrazol-1-yl)pyridin-3-yl)-6,6,6-trifluorohexan-2-amine, TFA salt]
> 0.1 | > 1 |  | > 0.1 | < 0.1 | > 1 |  |  | COC(c1ccc(-n2cc(-c3ccnc4[nH]cnc34)cn2)nc1)(C1CCN(C)CC1)C(F)(F)F (stereo not drawn) [Example 1244, 7-(1-(5-(2,2,2-trifluoro-1-methoxy-1-(1-methylpiperidin-4-yl)ethyl)pyridin-2-yl)-1H-pyrazol-4-yl)-3H-imidazo[4,5-b]pyridine]
> 0.003 | > 1 |  | > 0.03 | > 0.001 | > 1 |  |  | N#CCC(=O)N1CC(C(O)(c2ccc(-n3cc(-c4ccnc5[nH]cnc45)cn3)nc2)C(F)(F)F)C1 (stereo not drawn) [Example 1245, 3-(3-(1-(6-(4-(3H-imidazo[4,5-b]pyridin-7-yl)-1H-pyrazol-1-yl)pyridin-3-yl)-2,2,2-trifluoro-1-hydroxyethyl)azetidin-1-yl)-3-oxopropanenitrile]

Continued, compound first:

Compound | IC50 [1] [µM] | IC50 ([2]; Homo sapiens, TF-1, TF-1 cells) [µM] | IC50 ([3]; Homo sapiens) [µM] | IC50 [4] [µM] | IC50 [5] [µM] | IC50 [6] [µM] | IC50 ([2]; TF-1 cells) [µM] | IC50 [3] [µM]
CC(NC(=O)Nc1ccc(-c2ccnc3[nH]c(=O)[nH]c23)cc1)C(F)(F)F (stereo not drawn) [Example 1002, 1-(1,1,1-trifluoropropan-2-yl)-3-(4-(2,3-dihydro-2-oxo-1H-imidazo[4,5-b]pyridin-7-yl)phenyl)urea] | < 0.5 | > 10 | > 10 | < 0.5 | < 0.5 | > 0.5 |  | 
O=C(NCC(F)(F)F)n1cc(-c2ccnc3[nH]c(=O)[nH]c23)cn1 [Example 1026, N-(2,2,2-trifluoroethyl)-4-(2,3-dihydro-2-oxo-1H-imidazo[4,5-b]pyridin-7-yl)-1H-pyrazole-1-carboxamide] | 0.283 | > 1 | > 10 | 0.048 | 0.041 | 0.122 |  | 
N#CC(NC(=O)n1cc(-c2ccnc3[nH]c(=O)[nH]c23)cn1)C1CC1 (stereo not drawn) [Example 1043, N-(cyano(cyclopropyl)methyl)-4-(2,3-dihydro-2-oxo-1H-imidazo[4,5-b]pyridin-7-yl)-1H-pyrazole-1-carboxamide] | 0.123 | 4.7 | > 10 | 0.031 | 0.03 | 0.053 |  | 
CC(CC#N)NC(=O)n1cc(-c2ccnc3[nH]c(=O)[nH]c23)cn1 (stereo not drawn) [Example 1046, N-(1-cyanopropan-2-yl)-4-(2,3-dihydro-2-oxo-1H-imidazo[4,5-b]pyridin-7-yl)-1H-pyrazole-1-carboxamide] | < 0.5 | > 10 | > 10 | < 0.5 | < 0.5 | < 0.5 |  | 
CC(CC#N)NC(=O)n1cc(-c2ccnc3[nH]c(=O)[nH]c23)cn1 (stereo not drawn) [Example 1053, N-(1-cyanopropan-2-yl)-4-(2,3-dihydro-2-oxo-1H-imidazo[4,5-b]pyridin-7-yl)-1H-pyrazole-1-carboxamide] |  |  |  | < 1 | < 1 | > 1 | > 10 | > 10
N#CCCC1CCN(C(=O)n2cc(-c3ccnc4[nH]c(=O)[nH]c34)cn2)C1 (stereo not drawn) [Example 1061, 3-(1-(4-(2-oxo-2,3-dihydro-1H-imidazo[4,5-b]pyridin-7-yl)-1H-pyrazole-1-carbonyl)pyrrolidin-3-yl)propanenitrile] | > 1 | > 10 | > 10 |  | > 1 | > 1 |  | 
CS(=O)(=O)CCC(C#N)NC(=O)n1cc(-c2ccnc3[nH]cnc23)cn1 (stereo not drawn) [Example 1072, N-(1-cyano-3-(methylsulfonyl)propyl)-4-(3H-imidazo[4,5-b]pyridin-7-yl)-1H-pyrazole-1-carboxamide] | > 0.5 | > 10 | > 10 | > 0.5 | > 0.5 |  |  | 
FC(F)(F)Cc1ccc(-n2cc(-c3ccnc4[nH]cnc34)cn2)nc1 [Example 1084, 7-(1-(5-(2,2,2-trifluoroethyl)pyridin-2-yl)-1H-pyrazol-4-yl)-3H-imidazo[4,5-b]pyridine] |  | > 1 | > 10 |  |  |  |  | 
N#CC(c1ccc(-n2cc(-c3ccnc4[nH]cnc34)cn2)nc1)N1CCOCC1 (stereo not drawn) [Example 1112, 2-(6-(4-(3H-imidazo[4,5-b]pyridin-7-yl)-1H-pyrazol-1-yl)pyridin-3-yl)-2-morpholinoacetonitrile] | > 1 | 10 | > 10 | > 0.5 |  | > 1 |  | 
N#CCc1cccc(-n2cc(-c3ccnc4[nH]cnc34)cn2)n1 [Example 1117, 2-(6-(4-(3H-imidazo[4,5-b]pyridin-7-yl)-1H-pyrazol-1-yl)pyridin-2-yl)acetonitrile] |  | > 1 | > 10 |  |  |  |  | 
